Experimental data as given in paper PMC5861040, “Identification of di-substituted ureas that prevent growth of trypanosomes through inhibition of translation initiation” (Scientific Reports, 2018).
“Also recorded” adds a separate entry of the source.

Columns and labels:
T. cruzi epimastigotes [1] = assay: Alamar Blue viability assay of T. cruzi epimastigotes; format: cell-based, Trypanosoma cruzi (Y strain); conditions: Trypanosoma cruzi, 72 h, epimastigotes incubated 3 days with compound; for EC50: concentration inhibiting 50% of multiplication; for EC90: concentration inhibiting 90% of multiplication
Procedure: T. cruzi epimastigotes were incubated in culture medium for three days with 25 different compounds at 10 µM.
T. cruzi epimastigotes at 1 × 10^7/mL in 50 µL were incubated in 96-wells plates with the same volume of compounds pre-diluted in 50 µL of LIT medium for 48 hours at 28 °C. LLC-MK2 cells (3 × 10^3) in 100 µL of medium were added to 96 well plates. After 5 hours, the medium was replaced by fresh medium containing serial dilutions of test compounds and incubations proceeded for 72 hours at 37 °C. In both cases, 10 µL of AlamarBlue (Thermo Fisher Scientific) was added and the plates were further incubated for 18 hours at 28 °C for epimastigotes and 4 hours at 37 °C for mammalian cells. Absorbance at 570 nm and 600 nm were measured by using a SpectraMax M3 (Molecular Devices). The differences between absorbance at 570 nm and 600 nm for each well was normalized against a blank value for medium without parasites and lysed cells. Alternatively, L6 rat myoblast cell death and lysis were determined using the cytotoxicity Detection Kit Plus LDH Version 6 (Roche) after 72 hours incubation with the indicated compounds using the manufacturer protocol. […] Each compound was tested in triplicates in at least two independent experiments, with exceptions appointed on Table 1. Selective index was estimated by the ratio between LLC-MK2 EC50 and epimastigotes EC50 on Table 1.

heme regulated kinase = test system: heme regulated kinase; parameters: method as in PMID 21765405; conditions: cited from earlier work
T. cruzi epimastigotes [2] = assay: T. cruzi epimastigote multiplication in culture (parasite counting); format: cell-based, Trypanosoma cruzi (Y strain)
[3] = test system: T. brucei procyclic form (PCF); assay: T. brucei procyclic form multiplication (parasite counting); format: cell-based, Trypanosoma brucei; conditions: 48 hours at 28 °C, Fig. 1B
mammalian eIF2α kinases = test system: mammalian eIF2α kinases; parameters: method as in PMID 21765405, PMID 28590739; conditions: cited from earlier work

Row | Structure (SMILES) | EC50 (T. cruzi epimastigotes [1]) [µM] | EC90 (T. cruzi epimastigotes [1]) [µM] | activity on heme regulated kinase leading to eIF2α phosphorylation (heme regulated kinase) | effect on T. cruzi epimastigote multiplication at 10 µM (T. cruzi epimastigotes [2]; 10 µM, three days in culture medium) | inhibition of epimastigote multiplication (counting) (T. cruzi epimastigotes [2]; all tested concentrations, 48 hours, Fig. 1A) | multiplication of T. brucei PCF [3] | activation of mammalian eIF2α kinases (mammalian eIF2α kinases)
1 | O=C(Cn1ccnc1[N+](=O)[O-])NCc1ccccc1 [BZN, Benznidazole] | 211 ± 3 | 960 ± 25 | – | – | – | – | –
2 | O=C(Nc1ccc(Cl)c(Cl)c1)Nc1ccc2nnsc2c1 [BTdCPU, 1-(benzo [d][1,2,3]thiadiazol-6-yl)-3-(3,4-dichlorophenyl) urea] | – | – | activator | – | – | – | –
3 | O=C(Nc1ccc(Cl)c(Cl)c1)Nc1cc([N+](=O)[O-])ccc1Cl [NCPdCPU, 1-(2-chloro-5-nitrophenyl)-3-(3,4-dichlorophenyl) urea] | > 10 | > 10 | inactive | unable to produce any visible effect; also recorded: no activity | minimal inhibition | not | failed to activate
